One data set has as its system β-Receptor. The data set can be described thus: β-receptor blocking effect: 3H-dihydroalprenolol binding to synaptosome membrane of rat brain. The procedure:
Spraque-Dawley male rats having 150 - 200 g body weight were decapitated, and the brains were quickly taken out and, after decortication, frozen at -70°C. After freezing overnight at -70°C, the thawed brain was homogenized with a buffer [0.25 mole sucrose, 5 mmole tris(hydroxymethyl)aminomethane hydrochloride, 1 mmole magnesium chloride, pH 7.4] in an amount of 8 times the weight of the brain. The homogenate was centrifuged at 800 x g for 20 minutes, and the supernatant was centrifuged at 14,000 x g for 14 minutes, the deposit of which was washed three times with the above-mentioned buffer. The deposit finally obtained was suspended again in a buffer of 75 mmole tris(hydroxymethyl)aminomethane and 25 mmole magnesium chloride (pH 7.4) to form a membrane specimen.
To 50 1 of the membrane specimen were added 50 1 of ^3H-dihydroalprenolol (^3H-OHA) and 50 1 of the mixture of the test frug and the buffer, such that the total volume was adjusted to 150 1, and the mixture was incubated at 37°C for 10 minutes.
The reaction was stopped by adding an ice-cooled mixture of 50 mmole tris(hydroxymethyl)aminomethane hydrochloride and 17 mmole magnesium chloride (pH 7.4), and the mixture was filtered under reduced pressure through a Whatman GF/B glassfiber. The filter was washed three times and dried, and a toluene type scintillator was added to measure the radioactivity.
. In the measurement, the amount obtained by subtracting the bondings obtained in the presence of 10^-5 mole propranolol from the total bondings was considered to represent the specific bondings of the S-receptor. In addition, the determination of protein was carried out according to the method of Lowry et al. [Lowry, O.H. et al., J. Biol. Chem., 193, 265-275 (1951)].

In another data set the test system is ddy male mouse. Put plainly: Anti-arrhythmic effect: prevention of chloroform-induced ventricular flutter and fibrillation. It counts as in vivo. The following applies: ip, 0.5 h, read-out: Anti-arrhythmic effect (ED50). How it is done: When a compound showing an anti-arrhythmic effect is previously administered, such an irregular ventricular appearance is prevented. The compound of this invention was intraperioneally administered in various dosages to the groups of 29 - 40 mice. After 30 minutes the mice were subjected to the inhalation of chloroform, and the preventive ratios of the venticular flutter and fibrillation were measured for respective dosages.

Another data set can be described thus: in vivo. The following applies: mouse, ddy male mice, mortality within 1 week.
Data set [1] has as its system SHR (spontaneous hypertensive rat). The data set can be described thus: Effect on mean blood pressure in conscious spontaneously hypertensive rats. The note with it: for mean blood pressure % Exchange: conscious SHR, mean ±SEM. Format: in vivo. From the text:
In order to measure the blood pressure of a SHR (spontaneous hypertensive rat), a polyethylene tube was inserted into an artery to a level of the abdominal aorta through the crural artery, and the other end of the tube was tightly stoppered by a metal rod, extended subcutaneously and exposed out of the body at the posterior of the neck and fixed by suturation to the surrounding skin. The tube was filled with 500 U of heparin.
On the day subsequent to the operation, the blood pressure was measured without anesthetization or restriction using a pressure transducer and continously recorded on a thermal recording system together with the heart rate which was measured by driving a tachometer with the pulse wave of blood pressure.
The test drugs were dissolved in physiological saline and administered using a sound (p.o.)

Setting [2] is: 10^-5 mole test compound, 10 µM.
[3] abbreviates: intraperitoneal, chloroform inhalation after 30 minutes, mice.
The mark [4] stands for this setting: iv, caudal vein, read-out: Acute toxicity (LD50) intra-venous.
The mark [5] stands for this setting: po, in stomach, read-out: Acute toxicity (LD50) in stomach.

Molecules are shown by their SMILES. Like-named read-outs stand apart in the source and are kept apart here.

For `CNCC(O)COc1cccc2c1OS(=O)(=O)CC2` (stereo not drawn) [Example 1, 8-(3-methylamino-2-hydroxypropoxy)-3,4-dihydro-1,2-benzoxathiin-2,2-dioxide], the “β-Receptor blocking effect Inhibition (%)” value stood at 73.9% in the data set with β-Receptor (setting [2]) and 35.4% with β-Receptor (10^-6 mole test compound, 1 µM).
The corresponding values for `CN(C)CC(O)COc1cccc2c1OS(=O)(=O)CC2` (stereo not drawn) [Example 2, 8-(3-dimethylamino-2-hydroxypropoxy)-3,4-dihydro-1,2-benzoxathiin-2,2-dioxide] are 62.6% and 17.1%.
One may read the ED50 as the dose that gives a 50% effect, or the effect in half of the subjects. As usually defined, the LD50 is the dose expected to kill half of the subjects tested. `CC(C)NCC(O)COc1cccc2c1OS(=O)(=O)CC2` (stereo not drawn) [Example 3, 8-(3-isopropylamino-2-hydroxypropoxy)-3,4-dihydro-1,2-benzoxathiin-2,2-dioxide]: the “β-Receptor blocking effect Inhibition (%)” value was found to be 91.6% in the data set with β-Receptor (setting [2]) and 97.6% in the data set with β-Receptor (10^-6 mole test compound, 1 µM). In the data set on ddy male mouse (setting [3]), the ED50 turned out to be 0.23 mg/kg. Moreover, the 50% lethal dose (LD50) at 168 h is 68.2 mg/kg in the data set “in vivo” (setting [4]) and greater than 500 mg/kg in the data set “in vivo” (setting [5]).
Regarding `CC(C)(C)NCC(O)COc1cccc2c1OS(=O)(=O)CC2` (stereo not drawn) [Example 4, 8-(3-t-butylamino-2-hydroxypropoxy)-3,4-dihydro-l,2-benzoxathiin-2,2-dioxide], the “β-Receptor blocking effect Inhibition (%)” value with β-Receptor (setting [2]) is reported as 91.4%; in the data set on β-Receptor (10^-6 mole test compound, 1 µM) it was 96.3%. Besides, the “mean blood pressure % Exchange” value in data set [1] (0.1 mg/kg p.o., 10 min) is reported as 6.4 ± 3.5%; in data set [1] (0.1 mg/kg p.o., 20 min), 4.6 ± 3.2%; in data set [1] (0.1 mg/kg p.o., 30 min), 4.1 ± 2.6%; in data set [1] (0.1 mg/kg p.o., 60 min), -4.2 ± 3.8%; in data set [1] (0.1 mg/kg p.o., 90 min) it was -6.5 ± 3.2%; in data set [1] (0.1 mg/kg p.o., 120 min), -7.3 ± 5.9%. Moreover, the “mean blood pressure % Exchange” value in data set [1] (0.1 mg/kg p.o., 3 hr) was -8.9 ± 3.0%; in data set [1] (0.1 mg/kg p.o., 4 hr) it was -13.0 ± 2.5 %; in data set [1] (0.1 mg/kg p.o., 5 hr), -14.7 ± 2.5 %; in data set [1] (0.1 mg/kg p.o., 6 hr), -14.8 ± 2.4 %; in data set [1] (0.1 mg/kg p.o., 24 hr), -2.8 ± 4.2%; in data set [1] (1 mg/kg p.o., 10 min), 1.4 ± 1.2%. Moreover, the “mean blood pressure % Exchange” value in data set [1] (1 mg/kg p.o., 20 min) is given as -0.3 ± 1.7%; in data set [1] (1 mg/kg p.o., 30 min), -8.1 ± 2.9 %; in data set [1] (1 mg/kg p.o., 60 min), -12.0 ± 4.3 %; in data set [1] (1 mg/kg p.o., 90 min), -10.9 ± 2.8 %; in data set [1] (1 mg/kg p.o., 120 min) it was -14.5 ± 4.3 %; in data set [1] (1 mg/kg p.o., 3 hr) it was -16.3 ± 4.1 %. Also, the “mean blood pressure % Exchange” value in data set [1] (1 mg/kg p.o., 4 hr) is listed as -20.0 ± 3.7 %; in data set [1] (1 mg/kg p.o., 5 hr), -24.5 ± 4.0 %; in data set [1] (1 mg/kg p.o., 6 hr), -24.1 ± 3.3 %; in data set [1] (1 mg/kg p.o., 24 hr) it was -11.5 ± 6.2%. Also, in data set [1] (result in words, SHR, p.o., after 24 hours), the “duration of hypotensive effect” value is given as “remains effective even after 24 hours”. For the same compound, the hypotensive effect result in data set [1] (result in words, SHR, p.o., compared with carteolol) is recorded as “excellent hypotensive effect at almost the same level as carteolol”. In the data set with ddy male mouse (setting [3]), the ED50 was 0.03 mg/kg. In addition, the LD50 at 168 h is 59.2 mg/kg in “in vivo” (setting [4]) and greater than 500 mg/kg in “in vivo” (setting [5]).
With `CCC(C)NCC(O)COc1cccc2c1OS(=O)(=O)CC2` (stereo not drawn) [Example 5, 8-(3-sec-butylamino-2-hydroxypropoxy)-3,4-dihydro-1,2-benzoxathiin-2,2-dioxide], the “β-Receptor blocking effect Inhibition (%)” value was 95.3% with β-Receptor (setting [2]) and 83.0% with β-Receptor (10^-6 mole test compound, 1 µM). Also, the ED50 in the data set on ddy male mouse (setting [3]) was 1.3 mg/kg. For the same compound, the LD50 at 168 h in “in vivo” (setting [4]) was 68.2 mg/kg; in “in vivo” (setting [5]), greater than 500 mg/kg.
For `CC(C)CNCC(O)COc1cccc2c1OS(=O)(=O)CC2` (stereo not drawn) [Example 6, 8-(3-isobutylamino-2-hydroxypropoxy)-3,4-dihydro-l,2-benzoxathiin-2,2-dioxide], the “β-Receptor blocking effect Inhibition (%)” value in the data set with β-Receptor (setting [2]) was found to be 81.9%; with β-Receptor (10^-6 mole test compound, 1 µM), 41.7%.
The matching figures for `COc1ccc(CCNCC(O)COc2cccc3c2OS(=O)(=O)CC3)cc1OC` (stereo not drawn) [Example 7, 8-[3-(3,4-dimethoxyphenethylamino)-2-hydroxy-propoxy]-3,4-dihydro-1,2-benzoxathiin-2,2-dioxide]: 90.1% and 75.2%.
Consider `CCCC(=O)Nc1ccc(OCC(O)CNC(C)C)c(C(C)=O)c1` (stereo not drawn) [acebutolol, reference compound], for which the ED50 with ddy male mouse (setting [3]) is 47 mg/kg.
For `CC(C)(C)NCC(O)COc1cccc2c1CCC(=O)N2` (stereo not drawn) [carteolol, reference compound], the “mean blood pressure % Exchange” value in data set [1] (0.1 mg/kg p.o., 10 min) is recorded as 1.4 ± 2.1%; in data set [1] (0.1 mg/kg p.o., 20 min), -9.2 ± 4.0%; in data set [1] (0.1 mg/kg p.o., 30 min) it was -11.3 ± 3.9 %; in data set [1] (0.1 mg/kg p.o., 90 min), -18.1 ± 3.7 %; in data set [1] (0.1 mg/kg p.o., 120 min), -12.7 ± 6.5%; in data set [1] (0.1 mg/kg p.o., 3 hr), -15.4 ± 3.3 %. The “mean blood pressure % Exchange” value in data set [1] (0.1 mg/kg p.o., 4 hr) is -15.1 ± 3.7 %; in data set [1] (0.1 mg/kg p.o., 5 hr), -18.8 ± 1.3 %; in data set [1] (0.1 mg/kg p.o., 6 hr), -20.8 ± 1.7 %; in data set [1] (0.1 mg/kg p.o., 24 hr), -2.1 ± 2.5%; in data set [1] (1 mg/kg p.o., 10 min), 2.5 ± 3.2%; in data set [1] (1 mg/kg p.o., 20 min) it was -1.4 ± 2.6%. Moreover, the “mean blood pressure % Exchange” value in data set [1] (1 mg/kg p.o., 30 min) is listed as -5.1 ± 3.6%; in data set [1] (1 mg/kg p.o., 60 min) it was -11.7 ± 3.3 %; in data set [1] (1 mg/kg p.o., 90 min), -14.7 ± 3.6 %; in data set [1] (1 mg/kg p.o., 120 min) it was -23.8 ± 3.0 %; in data set [1] (1 mg/kg p.o., 3 hr), -23.1 ± 4.8 %; in data set [1] (1 mg/kg p.o., 4 hr), -24.4 ± 4.2 %. The “mean blood pressure % Exchange” value in data set [1] (1 mg/kg p.o., 5 hr) is listed as -24.7 ± 4.7 %; in data set [1] (1 mg/kg p.o., 6 hr), -21.3 ± 4.2 %; in data set [1] (1 mg/kg p.o., 24 hr) it was -2.1 ± 4.5%. Also, in the data set with ddy male mouse (setting [3]), the ED50 was determined as 400 mg/kg. The LD50 at 168 h in the data set “in vivo” (setting [4]) amounted to 38 mg/kg.
Turning to `CC(C)NCC(O)COc1cccc2ccccc12` (stereo not drawn) [propranolol, reference compound], the ED50 with ddy male mouse was determined as 2.2 mg/kg.

For the origin of these results see patent EP0156224A2, “Novel benzoxathiin derivative, process for preparing them and pharmaceutical composition” (SUNTORY LIMITED, priority 1984, dated 1985).
